Results from ChEMBL document CHEMBL4265892, “New series of 3,5-disubstituted tetrahydro-2H-1,3,5-thiadiazine thione (THTT) derivatives: Synthesis and potent antileishmanial activity” (Bioorg Med Chem Lett, 2018).
pIC50: −log10 of the molar value.

Assays:
Leishmania major = test: Antileishmanial activity against Leishmania major promastigotes after 72 hrs by Neubauer chamber based cell counting method; format: functional, organism-based
[1] = Cytotoxicity against […] 3T3 cells after 48 hrs by MTT assay; format: cell-based; settings: for pIC50: NIH3T3, 48 h, read-out: IC50
[2] = Cytotoxicity against […] 3T3 cells assessed as inhibition of cell viability at 50 uM after 48 hrs by MTT assay; format: cell-based; settings: read-out: INH

| SMILES | pIC50 (Leishmania major) | further results |
| --- | --- | --- |
| CCCN1CN(CC(=O)OCc2ccccc2)CSC1=S | 4.03 | – |
| CCCN1CN(CC(=O)OC)CSC1=S | 3.69 | IC50 [1]: Not Active; cytotoxicity at 48 h, 50 µM [2]: 36.9% |
| CCCN1CSC(=S)N(CC(=O)O)C1 | 4.16 | – |
| C[C@@H]1C[C@@H]([C@H](O)CC2CC(=O)NC(=O)C2)C(=O)[C@@H](C)C1 [CYCLOHEXIMIDE] | – | pIC50 [1]: 6.21; cytotoxicity at 48 h, 50 µM [2]: 66% |
| CC(C)N1CN(CC(=O)O)CSC1=S | 3.86 | – |
| CCN1CSC(=S)N(C(C)c2ccccc2)C1 (stereo not given) | 4.34 | – |
| O=C(O)CN1CN(CCO)CSC1=S | 4.40 | – |
| CCCN1CN(CC(=O)OCC)CSC1=S | 3.97 | – |
| CCN1CSC(=S)N(CC(=O)O)C1 | 4.34 | – |

More lines, in order of rising pIC50 (Leishmania major), values ahead:

| pIC50 (Leishmania major) | SMILES | further results |
| --- | --- | --- |
| 4.41 | CCCN1CN(CC(=O)O)CSC1=S | pIC50 [1]: 4.42; cytotoxicity at 48 h, 50 µM [2]: 56.6% |
| 4.42 | CCN1CSC(=S)N(CC)C1 | – |
| 4.44 | CCCCN1CSC(=S)N(CC(=O)O)C1 | – |
| 4.44 | CCCCN1CN(CC(=O)OCC)CSC1=S | – |
| 4.48 | CCN1CN(CC(=O)O)CSC1=S | – |
| 4.49 | CC(c1ccccc1)N1CN(CCO)CSC1=S (stereo not given) | – |
| 4.51 | CC(c1ccccc1)N1CN(CC(=O)O)CSC1=S (stereo not given) | – |
| 4.61 | CCCCN1CN(CC(=O)O)CSC1=S | – |
| 4.62 | CCCN1CSC(=S)N(C(C)c2ccccc2)C1 (stereo not given) | – |
| 4.67 | CC(C)N1CSC(=S)N(C(C)c2ccccc2)C1 (stereo not given) | – |
| 4.67 | CCCCN1CSC(=S)N(C(C)c2ccccc2)C1 (stereo not given) | – |
| 4.81 | COc1ccc(CN2CN(CC(=O)O)CSC2=S)cc1OC | pIC50 [1]: 4.64; cytotoxicity at 48 h, 50 µM [2]: 86.8% |
| 4.83 | N=C(N)c1ccc(OCCCCCOc2ccc(C(=N)N)cc2)cc1 [PENTAMIDINE] | – |
| 6.51 | C[C@@H]1[C@H](O)[C@@H](C)/C=C/C=C/C=C/C=C/C=C/C=C/C=C/[C@H](O[C@@H]2O[C@H](C)[C@@H](O)[C@H](N)[C@@H]2O)C[C@@H]2O[C@](O)(C[C@@H](O)C[C@@H](O)[C@H](O)CC[C@@H](O)C[C@@H](O)CC(=O)O[C@H]1C)C[C@H](O)[C@H]2C(=O)O [AMPHOTERICIN B] | – |
